{"source": "paper PMC10575543", "about": "(PLOS Pathogens, 2023)", "key": {"ALSV MTase [1]": {"target": "T1, ALSV MTase (Alongshan virus, UniProt A0A344X2I6)", "assay": "biochemical", "assay_type": "binding"}, "ALSV MTase [2]": {"target": "T1, ALSV MTase", "assay_type": "biochemical"}}, "note": "Values joined by “and” are separate entries in the source; they are usually repeats but may differ in a detail not shown here. Equal entries are not always repeated."}
{"smiles": "Nc1ncnc2c1ncn2[C@@H]1O[C@H](CSCC[C@H](N)C(=O)O)[C@@H](O)[C@H]1O", "note": "[SAH, S-adenosyl-L-homocysteine]", "values": [{"measurement": "N index (binding stoichiometry)", "setting": "ALSV MTase [1]", "result": "0.95 ± 0.05 and 1.05 ± 0.06"}]}
{"smiles": "Nc1ncnc2c1ncn2[C@@H]1O[C@H](C[C@@H](N)CC[C@H](N)C(=O)O)[C@@H](O)[C@H]1O", "note": "[SIN, sinefungin]", "values": [{"measurement": "Kd", "setting": "ALSV MTase [1]", "result": "12.6 ± 2.8", "unit": "µM"}, {"measurement": "inhibition of ALSV MTase methyltransferase activity", "setting": "ALSV MTase [2]", "result": "preserved its inhibitory capacity"}]}
